# Measured values: publication PMC7127791 (Bioorganic & Medicinal Chemistry Letters, 2016)
# “Also recorded” adds a separate entry of the source.
# Assays:
# Para-influenza-3 virus = assay: organism not typed; type: cell-based, Parainfluenza-3 virus; settings: Vero, read-out: Antiviral EC50 Para-influenza-3 virus
# Reovirus-1 = assay: organism not typed; type: cell-based; settings: Vero, read-out: Antiviral EC50 Reovirus-1
# varicella zoster virus = settings: human
# HEL cells = assay: Cytotoxicity; settings: human embryonic lung fibroblast cells; microscopy
# Vero cells = assay: Cytotoxicity; settings: minimal cytotoxic concentration by microscopical inspection
# HeLa cells = assay: Cytotoxicity; settings: HeLa cervix carcinoma cells; microscopy
# MDCK cells = assay: Cytotoxicity; settings: Madin-Darby canine kidney cells; microscopy
# Punta Toro virus [1] = type: cell-based
# [2] = system: Rift Valley fever virus (MP-12 strain); type: cell-based
# Punta Toro virus [3] = type: cell-based; remark: listed apart in the source
# [4] = system: broad and diverse panel of DNA and RNA viruses; type: cell-based
# other cell lines tested = assay: Cytotoxicity in the other mammalian cell lines tested; settings: 100 μM compound concentration; cell lines other than Vero, HEL and MT4
Compound,EC50 (Para-influenza-3 virus) [µM],EC50 (Reovirus-1) [µM],Cytotoxicity MCC HEL (HEL cells) [µM],Cytotoxicity MCC (Vero cells) [µM],Cytotoxicity MCC HeLa (HeLa cells),Cytotoxicity MCC MDCK (MDCK cells) [µM],also measured
"CCOC(=O)C1=C(C)NC(=O)NC1/C=C/c1ccccc1 (centres unmarked) [Compound 4h, Ethyl 6-methyl-2-oxo-4-[(E)-2-phenylethenyl]-1,2,3,4-tetrahydropyrimidine-5-carboxylate]",> 100,> 100,>100,100,⩾100 μM,>100,MCC reported with the varicella zoster virus EC50 (varicella zoster virus): 100 µM
"CCOC(=O)C1=C(C)NC(=O)NC1 [Compound 4j, Ethyl 6-methyl-2-oxo-1,2,3,4-tetrahydropyrimidine-5-carboxylate]",,,,,>100 µM,>100,
"CCOC(=O)C1=C(C)NC(=O)NC1CC(C)C (centres unmarked) [Compound 4l, Ethyl 6-methyl-4-(2-methylpropyl)-2-oxo-1,2,3,4-tetrahydropyrimidine-5-carboxylate]",,,>100,>100,>100 µM,>100,
"CCCCCCCCCCCC1NC(=O)NC(C)=C1C(=O)OCC (centres unmarked) [Compound 4m, Ethyl 6-methyl-2-oxo-4-undecyl-1,2,3,4-tetrahydro-5-pyrimidinecarboxylate]",> 100,> 100,100,,>100 µM,>100,activity against Punta Toro virus (in words) (Punta Toro virus [1]): selective and potent inhibitor; also recorded: selective and potent antiviral activity; also recorded: potent and selective inhibitor; times more potent than dextran sulphate (DS-10000) (Punta Toro virus [1]): approximately 7 times; times more potent than mycophenolic acid (Punta Toro virus [1]): approximately 7 times; activity against Rift Valley fever virus (in words) [2]: negligible; reduction in RVFV-induced CPE [2]: about 40%; 50% inhibition of RVFV at 100 μM (in words) ([2]; 100 μM): unable to achieve 50% inhibition; activity against PTV in HeLa cells (in words) (Punta Toro virus [3]): inactive; antiviral activity against the virus panel (in words) [4]: did not have antiviral activity against all other viruses tested; toxicity in the other cell lines tested (in words) (other cell lines tested): no toxicity
"NC(=O)c1ncn([C@@H]2O[C@H](CO)[C@@H](O)[C@H]2O)n1 [Ribavirin, reference compound]",,> 250,,>250,,,
"CCOC(=O)C1=C(C)NC(=O)NC1c1ccc(O)cc1 (centres unmarked) [Compound 4e, Ethyl 4-(4-hydroxyphenyl)-6-methyl-2-oxo-1,2,3,4-tetrahydropyrimidine-5-carboxylate]",> 100,> 100,>100,>100,>100 µM,>100,
"CCOC(=O)C1=C(C)NC(=O)NC1c1ccc(N(C)C)cc1 (centres unmarked) [Compound 4g, Ethyl 4-[4-(dimethylamino)phenyl]-6-methyl-2-oxo-1,2,3,4-tetrahydropyrimidine-5-carboxylate]",,,>100,100,>100 µM,>100,
"CCOC(=O)C1=C(C)NC(=O)NC1C (centres unmarked) [Compound 4k, Ethyl 4,6-dimethyl-2-oxo-1,2,3,4-tetrahydropyrimidine-5-carboxylate]",,,,,>100 µM,>100,
"CCOC(=O)C1=C(C)NC(=O)NC1c1cccs1 (centres unmarked) [Compound 4i, Ethyl 6-methyl-2-oxo-4-(thiophen-2-yl)-1,2,3,4-tetrahydropyrimidine-5-carboxylate]",,,,,>100 µM,>100,
"CCOC(=O)C1C2NC(=O)NC1(C)Oc1ccccc12 (centres unmarked) [Compound 5, Ethyl 9-methyl-11-oxo-8-oxa-10,12-diazatricyclo[7.3.1.0^2,7]trideca-2,4,6-triene-13-carboxylate]",> 100,> 100,>100,>100,>100 µM,>100,
"CCOC(=O)C1=C(C)NC(=O)NC1c1ccccc1Cl (centres unmarked) [Compound 4b, Ethyl 4-(2-chlorophenyl)-6-methyl-2-oxo-1,2,3,4-tetrahydropyrimidine-5-carboxylate]",> 100,> 100,>100,>100,>100 µM,>100,antiviral activity against the virus panel (in words) [4]: no antiviral activity
